Here are results for 29 molecules from PubChem BioAssay (NCI).

Structures are written as SMILES.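 1) Cells in 96-well plates. 2) Compound, 48 h, 5 concentrations. 3) Linear interpolation between surrounding doses. 4) Unreached endpoint = highest concentration. GI50 = concentration required for 50% inhibition of growth. Definition used: TGI = concentration required for complete inhibition of growth.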

The first test concerns SF-539 CNS. The test can be described thus: NCI anticancer screen, dose series, 48 h.
The molecule `Cc1ccc2c(C3Cc4ccccc4N3C(=O)/C=C\C(=O)O)c(C)[nH]c2c1` (configuration not stated) showed a TGI of over 100 µM.

On to `COc1ccc(C=O)c([N+](=O)[O-])c1`, for which the TGI turned out to be 47.2 µM.

`CCOC(=O)C1C(=S)NC(=O)C1C#N` (configuration not stated) returned a TGI of over 100 µM.

Regarding `COC(=O)C1(C)CCc2c(OC)ccc(OC)c2C1=O` (configuration not stated), the TGI was over 100 µM.

As to `COC(=O)C1CC2CC(=NNC(N)=O)CC2C1` (configuration not stated), the TGI was over 100 µM.

`CC#CCC1CCC(OCC)=CC1=O` (configuration not stated): the TGI was over 100 µM.

`O=C1CC(c2c[nH]c3ccccc23)C(=O)N1` (configuration not stated): the TGI is over 100 µM.

The molecule `N#CC(=C1C=CC(=NO)C=C1)c1ccc(Cl)cc1` gave a TGI of 25.4 µM.

The molecule `Cc1c(/C=N/N=C/c2[nH]c(C(=O)OC(C)(C)C)c(C)c2C)[nH]c(C(=O)OC(C)(C)C)c1C` displayed a TGI of over 100 µM.

Consider `O=C(NC1CCCCC1)NS(=O)(=O)c1ccc2c(c1)CCC2`, for which the TGI is over 100 µM.

For the molecule `CCOC(=O)C1=C(C)N(c2ccc(Cl)cc2)[C@]2(C#N)C(O)=C(Cl)C(Cl)=C(O)[C@]12C#N`, the GI50 is 8.61 µM and the TGI came to 96.8 µM.

The next test concerns SK-OV-3 ovarian. Briefly: NCI anticancer screen, dose series, 48 h.
On to `COc1cc(N2C(=O)[C@H](O)C2c2ccc(SC)cc2)cc(OC)c1OC` (some centres not stated), for which the GI50 is 0.0142 µM and the TGI is over 100 µM.

Molecule `CCC(=O)C12OC3OC(C)(C)OC3C1OC(C)(C)O2` (configuration not stated) showed a TGI of over 100 µM.

On to `CC/C=C\C/C=C\C/C=C\CCCCCCCC(=O)OCC(O)CO` (configuration not stated), for which the TGI was over 100 µM.

With `Cc1cccc(C)c1NC(=O)/C(=N/NC(N)=S)C(C)C(=O)c1ccc(Cl)cc1` (configuration not stated), the TGI is over 100 µM.

The molecule `N#CC(C#N)=C1NC(=O)CC(=O)N1` yielded a TGI of over 100 µM.

`Fc1ccc(C2SCc3nc4ccccc4n32)c(F)c1` (configuration not stated) yielded a TGI of over 100 µM.

As for `CCCCCCCCCCCCCCCCCC[n+]1ccc2c(C)c3c(c(C)c2c1)c1cc(O)ccc1n3CC`, the GI50 was 1.84 µM and the TGI came to 7.6 µM.

Consider `CO/N=C(\COc1ccc2c(c1)[nH]c1ccccc12)c1ccc(F)cc1`, for which the GI50 is 28.7 µM and the TGI was over 100 µM.

With `COc1cc(C(=O)C/C(CCC(=O)Nc2ccccc2[N+](=O)[O-])=N\NC(N)=O)ccc1O`, the TGI is over 100 µM.

In turn, `CCN(CC)CC1c2ccccc2C(CNc2ccccc2)N1C` (configuration not stated) gave a TGI of over 100 µM.

In the case of `O=C(/C=C\c1cccc([N+](=O)[O-])c1)/C=C/c1cccc([N+](=O)[O-])c1`, the GI50 is 20 µM and the TGI is over 100 µM.

`CC1(O)C=CC(=O)C=C1` registered a TGI of over 100 µM.

As to `COc1cc2c3c(n(C)c(=O)c2cc1OC)-c1cc2c(cc1/C3=C\CCCCN1C(=O)c3ccccc3C1=O)OCO2`, the GI50 was 13.5 µM and the TGI came out at 45.7 µM.

`COc1ccc(-c2cc(Cc3cccs3)c(=O)[nH]n2)cc1` returned a TGI of over 100 µM.

In turn, `CC(=O)Nc1ccc(SC#N)c2c(NC(C)=O)cccc12` registered a TGI of over 100 µM.

For `Cc1ccc(-c2nnc(-c3nn(-c4ccccc4)c4nc5ccccc5nc34)o2)cc1`, the TGI was found to be 24.4 µM.

Molecule `NNC(=O)CS(=O)(=O)Nc1ncccn1` showed a TGI of over 100 µM.

Turning to `COc1cccc(OC(=O)c2ccc(C(F)(F)F)nc2Nc2cc(Cl)ccc2C)c1`, the GI50 is 11.1 µM and the TGI was determined as 80.7 µM.

On to `Cc1ccc2c(C3Cc4ccccc4N3C(=O)/C=C\C(=O)O)c(C)[nH]c2c1` (configuration not stated), for which the TGI is over 100 µM.

The molecule `COc1ccc(C=O)c([N+](=O)[O-])c1` had a TGI of over 100 µM.

The molecule `CCOC(=O)C1C(=S)NC(=O)C1C#N` (configuration not stated) returned a TGI of over 100 µM.

For the molecule `COC(=O)C1(C)CCc2c(OC)ccc(OC)c2C1=O` (configuration not stated), the TGI was over 100 µM.

Molecule `COC(=O)C1CC2CC(=NNC(N)=O)CC2C1` (configuration not stated) displayed a TGI of over 100 µM.

`CC#CCC1CCC(OCC)=CC1=O` (configuration not stated) had a TGI of over 100 µM.

Take `O=C1CC(c2c[nH]c3ccccc23)C(=O)N1` (configuration not stated): the TGI was over 100 µM.

Turning to `N#CC(=C1C=CC(=NO)C=C1)c1ccc(Cl)cc1`, the TGI is 48.9 µM.

As to `Cc1c(/C=N/N=C/c2[nH]c(C(=O)OC(C)(C)C)c(C)c2C)[nH]c(C(=O)OC(C)(C)C)c1C`, the TGI is over 100 µM.

The molecule `O=C(NC1CCCCC1)NS(=O)(=O)c1ccc2c(c1)CCC2` registered a TGI of over 100 µM.

Regarding `CCOC(=O)C1=C(C)N(c2ccc(Cl)cc2)[C@]2(C#N)C(O)=C(Cl)C(Cl)=C(O)[C@]12C#N`, the GI50 is 69.6 µM and the TGI is over 100 µM.

A further test relates to SR leukemia. The test can be described thus: NCI anticancer screen, dose series, 48 h.
In the case of `COc1cc(N2C(=O)[C@H](O)C2c2ccc(SC)cc2)cc(OC)c1OC` (some centres not stated), the GI50 is under 0.01 µM and the TGI was over 100 µM.

`CCC(=O)C12OC3OC(C)(C)OC3C1OC(C)(C)O2` (configuration not stated): the TGI is over 100 µM.

The molecule `CC/C=C\C/C=C\C/C=C\CCCCCCCC(=O)OCC(O)CO` (configuration not stated) registered a TGI of over 100 µM.

Molecule `Cc1cccc(C)c1NC(=O)/C(=N/NC(N)=S)C(C)C(=O)c1ccc(Cl)cc1` (configuration not stated) came in with a TGI of over 100 µM.

The molecule `N#CC(C#N)=C1NC(=O)CC(=O)N1` returned a TGI of over 100 µM.

`Fc1ccc(C2SCc3nc4ccccc4n32)c(F)c1` (configuration not stated): the TGI was over 100 µM.

Turning to `COc1cc(C(=O)C/C(CCC(=O)Nc2ccccc2[N+](=O)[O-])=N\NC(N)=O)ccc1O`, the TGI is over 100 µM.

Take `CC1(O)C=CC(=O)C=C1`: the TGI came out at 61.2 µM.

In the case of `CC(=O)Nc1ccc(SC#N)c2c(NC(C)=O)cccc12`, the TGI is over 100 µM.

As for `Cc1ccc(-c2nnc(-c3nn(-c4ccccc4)c4nc5ccccc5nc34)o2)cc1`, the TGI is over 100 µM.

With `Cc1ccc2c(C3Cc4ccccc4N3C(=O)/C=C\C(=O)O)c(C)[nH]c2c1` (configuration not stated), the TGI worked out at 72.9 µM.

`COC(=O)C1(C)CCc2c(OC)ccc(OC)c2C1=O` (configuration not stated) gave a TGI of over 100 µM.

`CC#CCC1CCC(OCC)=CC1=O` (configuration not stated): the TGI was over 100 µM.

Turning to `N#CC(=C1C=CC(=NO)C=C1)c1ccc(Cl)cc1`, the TGI was 43.5 µM.

Molecule `Cc1c(/C=N/N=C/c2[nH]c(C(=O)OC(C)(C)C)c(C)c2C)[nH]c(C(=O)OC(C)(C)C)c1C` gave a TGI of over 100 µM.

In the case of `O=C(NC1CCCCC1)NS(=O)(=O)c1ccc2c(c1)CCC2`, the TGI was over 100 µM.

Regarding `CCOC(=O)C1=C(C)N(c2ccc(Cl)cc2)[C@]2(C#N)C(O)=C(Cl)C(Cl)=C(O)[C@]12C#N`, the GI50 is 20.6 µM and the TGI is over 100 µM.
